Measurements reported in US20220249622A1, “METHOD FOR PROTECTING BRAIN NEURON CELLS WITH BIOACTIVE COMPOUND” (TCI CO., LTD., priority 2021, published 2022).

Legend:
[1] = system: human brain neurons SH-SYSY; test: Inhibitory effect on brain neuron damage caused by MPP+ (MTT cell viability); assay type: cell-based; conditions: 5 μM MPP+ alone (control group), 48 hours
Method: The cells, culture medium, MTT apoptosis detection solution, ELISA reader, and statistical method of cell viability used in this example are the same as in Example 5, and details are not described herein again.
The SII-SYSY cells were seeded at a density of 5×10^3 cells per well into a 96-well culture plate and incubated for 24 hours at 37° C. and 5% CO2.
The culture medium was removed from each well. The SH-SYSY cells were divided into a blank group, a control group, and an experimental group. The fresh culture medium was added into the wells of the blank group. The fresh culture medium containing 5 μM MPP+ was added into the wells of the control group. The fresh culture medium containing 5 μM MPP+ and 1 mg/mL catfish skin collagen peptide powder from Example 1 was added into the wells of the experimental group. Each group was triplicated and incubated at 37° C. for 48 hours.
Then, 15 μL of 5 MTT apoptosis detection solution was added to each group for 3-4 h at 37° C. and 5% CO2.
The culture medium in each well was removed. In each group, 50 μL of DMSO was added to dissolve the purple crystals of formazan. Finally, an absorbance (at 570 nm) of each group was measured by an ELISA reader to analyze the cell viability of each group.
Taking the value of the blank group as 100% of cell viability, each value of the control group and the experimental group was converted into cell viability (%).

[2] = system: mouse brain neuroblastoma cells Nero2a; test: Activity of mitochondria of neuron cells (JC-1 mitochondrial membrane potential assay, flow cytometer); assay type: cell-based; conditions: 24 hours, control group = 100%
Excerpt: 1. Cell strain: mouse brain neuroblastoma. cells Nero2a, from the American Type
Culture Collection (ATCC®, Cat. CCL-131), hereinafter referred to as Nero2a cells.
2. Culture medium: Dulbecco's modified Eagle's medium (DMEM, purchased from Gibco, Cat. 11965-092) containing 10 vol % of Fetal Bovine Serum (FBS, purchased from Gibco, 10437-028) and 3.7 g/L of sodium bicarbonate (purchased from Sigma, S5761-500G).
4. Mitochondrial n embranepotential assay kit (MitoScreen (.IC-1) kit purchased from BD, model 551302): with ,IC-1 dye (lyophilized) and 10× assay buffer. Before use, the assay buffer was diluted 10-fold with 1 PBS solution to form 1× assay buffer, 130 μl of dimethyl sulfoxide (DMSO) was added into the JC-1 dye (lyophilized) to form a JC-1 stock solution. Then, the stock solution was diluted to 1/100 with the 1 × assay buffer to form a JC-1 working reagent
6. Flow cytometer: purchased from BD Pharmingen, model BDTM Accuri C6 Plus.
The Nero2a cells were seeded into a 6-well culture plate at a density of […] cells per well, and 2 ml., of the above-mentioned fresh culture medium was added to each well and incubated for 24 hours at 37° C. and 5% CO2.
Remove the culture medium from each well. The Nero2a cells were divided into a control group and experimental groups 1-5. Control group was added with the fresh culture medium. Experimental group I was added with fresh culture medium containing 50 μg/mL synthesized peptide of SEQ .117 NO :1; experimental group 2 was added with fresh culture medium containing 50 μg/mL synthesized peptide of SEQ ID NO:2; experimental group 3 was added with fresh culture medium containing 50 μg/mL synthesized peptide of SEQ ID NO 3, experimental group 4 was added with fresh culture medium containing 25 μg/mL synthesized peptide of SEQ ID NO:4; and experimental group 5 was added with fresh culture medium containing 1 mg/mL of catfish skin collagen peptide powder from Example. 1. Each group was triplicated and incubated at 37C. for 24 hours.
In each group, the culture medium was removed, and then the cells were washed twice with the PBS solution. Then, 200 μL of trypsin solution was added to react with the cells for 3 min, and 6 mL of fresh culture medium was added to stop the reaction. […]
The cell solution of the control group and the cell solution of each experimental group were analyzed for the activity of mitochondria by using a flow cytometer.
Standard deviations were calculated by an STDEV formula of Excel software, and whether statistically significant differences existed or not was analyzed by one-tail student t-test in the Excel software. […] The p value of each group was calculated compared to the control group. […]

Row | Compound | relative accumulation of JC-1 ([2]; 50 μg/mL synthesized peptide) | further results
1 | C[n+]1ccc(-c2ccccc2)cc1 [MPP+, 1-methyl-4-phenylpyridin-1-ium] | – | cell viability ([1]; SH-SYSY cells, blank group = 100%): 86%; cell viability reduced by ([1]; vs blank group): 14%
2 | GRGGFGGRGGFG (listed as Pangasius bocourti) [SEQ ID NO: 3, synthesized peptide, peptide fragment of nucleolin from catfish skin] | 120.95% | –
3 | LVMGFHPQYL (listed as Pangasius bocourti) [SEQ ID NO: 4, synthesized peptide, peptide fragment of sestrin 1 from catfish skin] | – | relative accumulation of JC-1 ([2]; 25 μg/mL synthesized peptide): 115.74%
4 | NGTGPQNH (listed as Pangasius bocourti) [SEQ ID NO: 1] | 146.90% | –
5 | TAELEPLTDG (listed as Pangasius bocourti) [SEQ ID NO: 2, synthesized peptide, peptide fragment of NAD synthetase 1 from catfish skin] | 150,17% | –
